Experimental findings from patent US8367410B2, “Application of electrical stimulation for functional tissue engineering in vitro and in vivo” (Massachusetts Institute of Technology, priority 2003, dated 2013) are described below.

SMILES strings stand for the structures. Marks after values point to notes of the source that are not given here.

One assay relates to neonatal rat ventricles. The assay can be described thus: Contractile function (ET, MCR) of neonatal rat ventricle slices, palmitoleic acid treatment and washout. Type of assay: cell-based. Particulars: mean +/- SE. The protocol:
(§1) Contractile function. The contractile function of engineered cardiac constructs was evaluated by monitoring contractile activity upon electrical stimulation at ×10 magnification using a microscope (Nikon Diaphot). Each construct was placed in a 100-mm petri dish containing […] Tyrode solution (140 mM NaCl, 5.4 mM KC1, 0.33 mM NaH2PO4, 1.8 mM CaCl2, 1 mM MgCl2, 5 mM HEPES, and 5.5 MM D-glucose; pH 7.4) between two custom-made gold electrodes connected to a cardiac stimulator (Nihon Kohden). The temperature was maintained at 37° C. using a heating tape (VWR) attached to the bottom of the petri dish.
(§2) The maximum capture rate (MCR) was defined as the maximum pacing frequency (in beats/min) for a synchronous stimulus response of the constructs. To measure MCR, the stimulation frequency was increased (from 60 to 600 beats/min, in 20 beats/min increments) at a constant voltage (equal to either 150% or 200% of the ET). The construct response was measured at each frequency, and the frequency was increased until the contractions became asynchronous, irregular, or completely ceased. The maximum frequency for synchronous contractions was recorded as the MCR. The value of ET, which was different from one construct to another due to the differences in their structures, served as the baseline voltage for the measurement of MCR.
(§3) Constructs cultured in perfused cartridges were compared with constructs cultured in mixed dishes and to neonatal rat ventricles (full thickness slices obtained by bisecting the left ventricle parallel to the base apex line). The effect of palmitoleic acid (PA), a gap junction blocker (4), was investigated by incubating constructs or slices of native ventricles in PA (8.3 mM in Tyrode solution) for 20 min at 37° C. and then determining ET and MCR as described above. To test whether the effect of PA was reversible, constructs were transferred to Tyrode solution and retested after an additional 20 min at 37° C.

The subject of assay [1] is engineered cardiac constructs. Briefly: Contractile activity of constructs during incubation with palmitoleic acid. Type of assay: cell-based, rat. The protocol: as §1, §3
Assay [2] has as its system engineered cardiac constructs cultured in mixed dishes. Briefly: Contractile function (ET, MCR) of dish-grown constructs, palmitoleic acid treatment and washout. It counts as cell-based, rat. As for the experimental part: as §1, §2, §3
Assay [3] relates to engineered cardiac constructs cultured in perfused cartridges. The assay can be described thus: Contractile function (ET, MCR) of perfused constructs, palmitoleic acid treatment and washout. It counts as cell-based, rat. The settings on record: mean +/- SE. As for the experimental part: as §1, §2, §3
Setting [4] is: dish-grown construct, after washout of PA, mean +/- SE.
Where [5] appears, read: perfused construct, after washout of PA.

On to `CCCCCC/C=C\CCCCCCCC(=O)O` [PA, palmitoleic acid], for which the “ET (excitation threshold), After PA” value was 1.5 +/− 0.1 V in the assay with neonatal rat ventricles (after washout of PA (8.3 mM, 20 min, 37° C.), stimulation 60 beats/min); 4.4 +/− 0.1^ab V in assay [2] (dish-grown construct (7 days at 25 rpm), after washout of PA (8.3 mM, 20 min), 60 beats/min, mean +/- SE); 3.5 +/− 0.1^a V in assay [3] (perfused construct (7 days at 500 μm/s), after washout of PA (8.3 mM, 20 min), 60 beats/min). In addition, the “MCR at 150% ET, After PA” value in the assay on neonatal rat ventricles (after washout of PA) is 465 +/− 15 beats/min; in assay [2] (setting [4]) it was 378 +/− 31^c beats/min; in assay [3] (setting [5]) it was 415 +/− 35 beats/min. Also, the “MCR at 200% ET, After PA” value in the assay on neonatal rat ventricles (after washout of PA) was 427 +/− 58 beats/min; in assay [2] (setting [4]), 380 +/− 31^c beats/min; in assay [3] (setting [5]), 435 +/− 45 beats/min. The “Contractile activity after the washout of PA” value in assay [1] (after transfer to Tyrode solution, 20 min at 37° C.) is recorded as “Contractile activity resumed”. Besides, the “Voltage at which synchronous construct contractions could not be induced” value in assay [1] (upon incubation with PA (8.3 mM in Tyrode solution)) was over 9.9 V. Moreover, the “Recovery of MCR after PA washout” value in assay [2] (dish-grown constructs) is listed as “failed to recover their baseline levels”.
